{
  "source": "the supplement of paper PMC10307832",
  "assay_in_all_cases": "relative viability (nuclei count vs DMSO), 5 days (fraction); higher = more cells survive",
  "key": {"[1]": {"compound": "Cn1cnc2c(F)c(Nc3ccc(Br)cc3Cl)c(C(=O)NOCCO)cc21 [Selumetinib] + N=C(N)NC(=N)NCCc1ccccc1 [Phenformin] (partner 250 µM)", "how_it_was_run": "(§1)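 Values are medians from duplicate plates. Each reflects relative viability, defined as the nuclei count of treated wells over that of vehicle wells. Lung cancer cell lines in 1536-well plates were pin-tool dosed one day after seeding with one drug alone or with a fixed anchor-drug dose plus five library-drug doses (not always all listed) in √10 steps, then fixed, stained and imaged at 4× after 5 days.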"}, "[2]": {"compound": "Cn1cnc2c(F)c(Nc3ccc(Br)cc3Cl)c(C(=O)NOCCO)cc21 [Selumetinib] + Nc1ncn([C@H]2C[C@H](O)[C@@H](CO)O2)c(=O)n1 [Decitabine] (partner 2 µM)", "how_it_was_run": "as §1"}, "[3]": {"compound": "Cn1cnc2c(F)c(Nc3ccc(Br)cc3Cl)c(C(=O)NOCCO)cc21 [Selumetinib] + O=C(CCCCCCC(=O)Nc1ccccc1)NO [Vorinostat] (partner 1 µM)", "how_it_was_run": "as §1"}, "[4]": {"compound": "CC1(C)CCC(CN2CCN(c3ccc(C(=O)NS(=O)(=O)c4ccc(NCC5CCOCC5)c([N+](=O)[O-])c4)c(Oc4cnc5[nH]ccc5c4)c3)CC2)=C(c2ccc(Cl)cc2)C1 [Venetoclax] + CC(=O)c1c(C)c2cnc(Nc3ccc(N4CCNCC4)cn3)nc2n(C2CCCC2)c1=O [Palbociclib] (partner 0.5 µM)", "how_it_was_run": "as §1"}},
  "data": [
    {"cell line": "UMC-11", "values": [
      {"measurement": "relative viability", "setting": "[1]; first compound 0.02 µM", "value": 0.301},
      {"measurement": "relative viability", "setting": "[1]; first compound 0.06325 µM", "value": 0.284},
      {"measurement": "relative viability", "setting": "[1]; first compound 0.2 µM", "value": 0.307},
      {"measurement": "relative viability", "setting": "[1]; first compound 0.6325 µM", "value": 0.323},
      {"measurement": "relative viability", "setting": "[2]; first compound 0.02 µM", "value": 0.653},
      {"measurement": "relative viability", "setting": "[2]; first compound 0.06325 µM", "value": 0.624},
      {"measurement": "relative viability", "setting": "[2]; first compound 0.2 µM", "value": 0.619},
      {"measurement": "relative viability", "setting": "[2]; first compound 0.6325 µM", "value": 0.643},
      {"measurement": "relative viability", "setting": "[3]; first compound 0.02 µM", "value": 0.387},
      {"measurement": "relative viability", "setting": "[3]; first compound 0.06325 µM", "value": 0.285},
      {"measurement": "relative viability", "setting": "[3]; first compound 0.2 µM", "value": 0.348},
      {"measurement": "relative viability", "setting": "[3]; first compound 0.6325 µM", "value": 0.368},
      {"measurement": "relative viability", "setting": "[4]; first compound 0.01 µM", "value": 0.37},
      {"measurement": "relative viability", "setting": "[4]; first compound 0.03162 µM", "value": 0.334},
      {"measurement": "relative viability", "setting": "[4]; first compound 0.1 µM", "value": 0.277},
      {"measurement": "relative viability", "setting": "[4]; first compound 0.3162 µM", "value": 0.304},
      {"measurement": "relative viability", "setting": "[4]; first compound 1 µM", "value": 0.324}
    ]}
  ]
}
